Here are results for 29 molecules from patent publication US8178699B2, “Modulators of CCR9 receptor and methods of use thereof” (Pfizer Inc., priority 2008, dated 2012).

Molecules are shown by their SMILES. Where a name gives a salt, the structure may show the parent alone. Bounds are passed on as bounds.

What is called IC50 is the concentration that inhibits the measured activity by half.

This test deals with T1, human CCR9 receptor (Homo sapiens, UniProt P51686).
T1 construct: expressed in transfected cells
T1 sequence (P51686 1-369): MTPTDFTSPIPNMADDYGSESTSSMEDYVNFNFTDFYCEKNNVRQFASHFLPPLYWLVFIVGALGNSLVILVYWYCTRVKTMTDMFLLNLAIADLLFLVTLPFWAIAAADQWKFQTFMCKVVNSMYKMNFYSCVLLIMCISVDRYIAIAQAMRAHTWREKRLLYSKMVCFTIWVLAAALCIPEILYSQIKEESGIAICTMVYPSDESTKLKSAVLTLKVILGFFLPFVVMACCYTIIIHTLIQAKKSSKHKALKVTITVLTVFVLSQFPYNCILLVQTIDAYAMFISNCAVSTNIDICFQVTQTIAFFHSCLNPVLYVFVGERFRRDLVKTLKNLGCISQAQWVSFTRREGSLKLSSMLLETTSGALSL
Put plainly: CCR9 FLIPR/FlexStation Assay (inhibition of TECK induced calcium mobilization). Conditions: CCR9 antagonist activity; TECK induced calcium mobilization in CCR9-Flp-CHO cells stably over expressing human CCR9; rhTECK at EC70; read-out: Binding IC50. The test is classed as cell-based. The source says: Exemplary methods are described in US Publication Nos. US2004/0180892 and US2005/0049286, which are incorporated herein by reference. An exemplary assay for determining CCR9 antagonist activity of the compounds provided herein is CCR9 FLIPR/FlexStation Assay. In certain embodiments, the following protocol is used for the assay:
CCR9 FLIPR/FlexStation Assay Protocol
Calcium assay in FLIPR/FlexStation determines inhibitors of TECK induced calcium mobilization in CCR9-Flp-CHO cells that stably over express human CCR9 receptor. CCR9-Flp-CHO cells are seeded at 25,000 cells/well in a clear bottom, black wall 96-well plate (Greiner #655090) one day prior to assay. Cells are grown in a tissue culture incubator at 37° C. with 5% CO2 for 18 to 24 hours.
Wash buffer and dye loading buffer are prepared fresh each time the assay is performed. Wash buffer is prepared according to the following protocol: 20 ml 10×HBSS (Invitrogen Gibco #14065-056), 4 ml 1M HEPES (Sigma H3784), 174 ml sterile deionized water; then add 140 mg probenecid (Sigma P8761) dissolved in 2 ml 1M NaOH (Fisher S318) to solution and pH to 7.4. This wash buffer contains 1×HBSS, 20 mM HEPES and 2.5 mM probenecid. For one 96-well plate, dye loading buffer is prepared as following: 11 ml wash buffer, 44 μl Fluo-4/pluoronic acid mix (prepared from 22 μL aliquot of 2 mM Fluo-4 (Molecular Probes F14202, 1 mg/tube)+22 μl 20% pluronic F-127 (Molecular Probes P3000MP).
Cells are loaded with dye according to the protocol below:
1. Prepare wash buffer with 1×HBSS/HEPES at room temperature
2. Prepare loading buffer (keep in dark)
3. Aspirate culture media and wash with 100 μl wash buffer per well×1
4. Add 100 μl dye loading buffer to each well
5. Incubate at 37° C. for 30 minutes
6. Aspirate loading buffer
7. Wash with 100 μl wash buffer per well×3
8. Add 100 μl wash buffer per well
9. Incubate at 37° C. for 30 minutes
10. Assay plate with FLIPR or FlexStation
10 mM stock compounds in DMSO are prepared and diluted in DMSO to 1 mM. Compounds are diluted in wash buffer to make 8 point series dilutions containing same final concentration of DMSO (1%). Compounds are tested in duplicate wells for each point. Ligand rhTECK (R&D Systems 334-TK) was diluted to 6× of its EC70 with wash buffer. Appropriate amount of 6× ligand is added to each well. Data is analyzed using XLfit3 software to calculate IC50 value of antagonist activity for each compound.
CCR9 antagonist activity of exemplary compounds was determined using CCR9 FLIPR/FlexStation Assay as described in Section 4.4 and is provided in Table 1 below. The IC50 for the compounds are represented as follows: A≦100 nM; B>100-500 nM; C>500 nM.
(Calcium assays in cells follow changes in intracellular calcium, usually with a dye or a luminescent sensor.)
Turning to `O=C(O)c1sccc1NS(=O)(=O)c1cccc(-c2ccccc2)c1` [Example 40, 3-(biphenyl-3-ylsulfonamido)thiophene-2-carboxylic acid, disodium salt], the IC50 is greater than 500 nM.

For `CC(C)(C)c1ccc(S(=O)(=O)Nc2ccsc2C(=O)O)c(F)c1` [Example 29, 3-(4-tert-butyl-2-fluorophenylsulfonamido)thiophene-2-carboxylic acid, disodium salt], the IC50 is no more than 100 nM.

Take `O=C(O)c1sccc1NS(=O)(=O)c1ccc(Br)cc1` [Example 20, 3-(4-bromophenylsulfonamido)thiophene-2-carboxylic acid, disodium salt]: the IC50 was greater than 500 nM.

Consider `CCc1ccccc1-c1cccc(S(=O)(=O)Nc2ccsc2C(=O)O)c1` [Example 39, 3-(2′-ethylbiphenyl-3-ylsulfonamido)thiophene-2-carboxylic acid, disodium salt], for which the IC50 was greater than 500 nM.

With `CC(C)(C)c1ccc(S(=O)(=O)Nc2ccsc2C(=O)O)c(CCc2ccccc2)c1` [Example 11, 3-(4-tert-butyl-2-phenethylphenylsulfonamido)thiophene-2-carboxylic acid, disodium salt], the IC50 is no more than 100 nM.

In the case of `CC(C)c1ccc(S(=O)(=O)Nc2ccsc2C(=O)O)cc1` [Example 37, 3-[4-(iso-propylphenyl)sulfonamido]thiophene-2-carboxylic acid, disodium salt], the IC50 lay in the range of 100 to 500 nM.

For `CC(C)(C)c1ccc(S(=O)(=O)Nc2ccsc2C(=O)O)c(CCC2CC2)c1` [Example 57, 3-[4-tert-Butyl-2-(2-cyclopropylethyl)phenylsulfonamido]thiophene-2-carboxylic acid, disodium salt], the IC50 is no more than 100 nM.

As to `O=C(O)c1sccc1NS(=O)(=O)c1ccc(OC(F)(F)F)cc1Cl` [Example 50, 3-[2-chloro-4-(trifluoromethoxy)phenylsulfonamido]thiophene-2-carboxylic acid, disodium salt], the IC50 is no more than 100 nM.

`CC(C)(C)c1ccc(S(=O)(=O)Nc2c(C(=O)O)sc3ncccc23)cc1` [Example 26, 3-(4-tert-butylphenylsulfonamido)thieno[2,3-b]pyridine-2-carboxylic acid, disodium salt]: the IC50 is greater than 500 nM.

In the case of `CC(C)(C)c1ccc(S(=O)(=O)Nc2ccsc2C(=O)O)c(/C=C/c2ccccc2)c1` [Example 7, 3-(4-tert-butyl-2-styrylphenylsulfonamido)thiophene-2-carboxylic acid, disodium salt], the IC50 was 100 to 500 nM.

With `COc1cc(C(C)(C)C)ccc1S(=O)(=O)Nc1ccsc1C(=O)O` [Example 8, 3-(tert-butyl-2-methoxyphenylsulfonamido)thiophene-2-carboxylic acid, disodium salt], the IC50 was no more than 100 nM.

Turning to `CC(C)(C)c1ccc(S(=O)(=O)Nc2ccsc2C(=O)O)c(Br)c1` [Example 1, 3-(2-bromo-4-tert-butylphenylsulfonamido)thiophene-2-carboxylic acid, sodium salt], the IC50 is no more than 100 nM.

As to `CC(C)(C)c1ccc(S(=O)(=O)Nc2ccsc2C(=O)O)cc1` [Example 16, 3-(4-tert-butylphenylsulfonamido)thiophene-2-carboxylic acid, disodium salt], the IC50 was no more than 100 nM.

Consider `O=C(O)c1sccc1NS(=O)(=O)c1ccc2c(c1)CCCC2` [Example 21, 3-(5,6,7,8-tetrahydronaphthalene-2-sulfonamido)thiophene-2-carboxylic acid, disodium salt], for which the IC50 was in the range of 100 to 500 nM.

With `CC(C)(C)c1ccc(S(=O)(=O)Nc2ccsc2C(=O)O)c(-c2cccc(F)c2)c1` [Example 54, 3-(5-tert-butyl-3′-fluorobiphenyl-2-ylsulfonamido)thiophene-2-carboxylic acid, disodium salt], the IC50 lay within 100 to 500 nM.

For `CCC(C)(C)c1ccc(S(=O)(=O)Nc2ccsc2C(=O)O)cc1` [Example 18, 3-(4-(1,1-Dimethylpropyl)phenylsulfonamido)thiophene-2-carboxylic acid, sodium salt], the IC50 is 100 to 500 nM.

Turning to `O=C(O)c1sccc1NS(=O)(=O)c1ccc(N2CCOCC2)cc1` [Example 23, 3-[(4-morpholin-4-yl)phenylsulfonamido]thiophene-2-carboxylic acid, disodium salt], the IC50 was greater than 500 nM.

Consider `O=C(O)c1sccc1NS(=O)(=O)c1ccc2c(c1)CCC2` [Example 33, 3-(2,3-dihydro-1H-indene-5-sulfonamido)thiophene-2-carboxylic acid, disodium salt], for which the IC50 is greater than 500 nM.

As to `CN(c1ccsc1C(=O)O)S(=O)(=O)c1ccc(C(C)(C)C)cc1` [Example 15, 3-(4-tert-butyl-N-methylphenylsulfonamido)thiophene-2-carboxylic acid, sodium salt], the IC50 is greater than 500 nM.

On to `Cc1cc(S(=O)(=O)Nc2ccsc2C(=O)O)ccc1N1CCCC1` [Example 32, 3-(3-methyl-4-(pyrrolidin-1-yl)phenylsulfonamido)thiophene-2-carboxylic acid, disodium salt], for which the IC50 was greater than 500 nM.

In the case of `CCCOc1ccccc1-c1cccc(S(=O)(=O)Nc2ccsc2C(=O)O)c1` [Example 44, 3-(2′-propoxybiphenyl-3-ylsulfonamido)thiophene-2-carboxylic acid, disodium salt], the IC50 was greater than 500 nM.

For the molecule `CC(=O)Oc1cc(C(C)(C)C)ccc1S(=O)(=O)Nc1ccsc1C(=O)O` [Example 12, 3-(2-acetoxy-4-tert-butylphenylsulfonamido)thiophene-2-carboxylic acid, disodium salt], the IC50 fell in the range of 100 to 500 nM.

As for `CC(C)(C)c1ccc(S(=O)(=O)Nc2ccsc2C(=O)O)c(N2CCOCC2)c1` [Example 3, 3-[4-tert-butyl-2-(morpholin-4-yl)phenylsulfonamido]thiophene-2-carboxylic acid], the IC50 was in the range of 100 to 500 nM.

With `CC(C)(C)c1ccc(S(=O)(=O)Nc2ccsc2C(=O)O)c(N2CCCCC2)c1` [Example 47, 3-[4-tert-Butyl-2-(piperidin-1-yl)phenylsulfonamido]thiophene-2-carboxylic acid], the IC50 was in the range of 100 to 500 nM.

Regarding `CC(C)(C)c1ccc(S(=O)(=O)Nc2ccsc2C(=O)O)c(/C=C/C2CC2)c1` [Example 52, 3-[4-tert-butyl-2-(2-cyclopropylvinyl)phenylsulfonamido]thiophene-2-carboxylic acid, disodium salt], the IC50 was no more than 100 nM.

Consider `CCCCc1ccc(S(=O)(=O)Nc2ccsc2C(=O)O)cc1` [Example 38, 3-[4-(n-butylphenyl)sulfonamide]thiophene-2-carboxylic acid, disodium salt], for which the IC50 was no more than 100 nM.

`O=C(O)c1sccc1NS(=O)(=O)c1ccc(F)cc1C1CCCC1` [Example 35, 3-(2-cyclopentyl-4-fluorophenylsulfonamido)thiophene-2-carboxylic acid, disodium salt]: the IC50 was greater than 500 nM.

As to `CC(C)(C)c1ccc(S(=O)(=O)Nc2c(C(=O)O)sc3ccccc23)cc1` [Example 24, 3-(4-tert-butylphenylsulfonamido)benzo[b]thiophene-2-carboxylic acid, disodium salt], the IC50 fell in the range of 100 to 500 nM.

In the case of `CC(C)(C)c1ccc(S(=O)(=O)Nc2ccsc2C(=O)O)c(-c2ccncc2Cl)c1` [Example 45, 3-[4-tert-Butyl-2-(3-chloropyridin-4-yl)phenyl-sulfonamido]thiophene-2-carboxylic acid], the IC50 was greater than 500 nM.
